Bridge positions count the residues as written; N and C are the ends. Ends that are not written are not given here.
Test system: patients with chronic idiopathic constipation (CIC)
Assay: First phase 3 CIC trial: durable overall CSBM responders (primary endpoint)
Format: in vivo, human
Design: Odds Ratio (adjusted), durable overall CSBM responders: reference not given here
Conditions: for Non-Responders, % / Durable Overall CSBM Responders, %: ITT; for Durable Overall CSBM Responders, %: MRA; for proportion of durable overall responders: 12-week treatment, intention-to-treat population, placebo 10.2%; for Odds Ratio (adjusted), durable overall CSBM responders / Difference in Proportions (adjusted), responders minus placebo: adjusted for gender; for Odds Ratio (adjusted), durable overall CSBM responders: CMH
Text: Both trials include a two-week pre-treatment baseline period, a 12-week treatment period, and a two-week post-treatment period. The phase 3 CIC program was designed to support regulatory submission in the U. S.
The primary endpoint for both trials is the proportion of durable overall responders (%), which is the current regulatory endpoint required for U.S. approval in CIC. The FDA has defined a durable overall responder as a patient who fulfills both ≧3 complete spontaneous bowel movements (CSBMs) per week plus an increase of ≧1 CSBM from baseline in the same week, for 9 out of the 12 treatment weeks. In addition, the same patient must be an overall responder for at least 3 of the last 4 treatment weeks in order to be considered a durable overall responder.
Patients were selected using Rome 3 criteria modified for CIC and had (1) fewer than 3 defecations per week, (2) loose stools occurring rarely without laxatives, (3) inadequate criteria for irritable bowel syndrome with constipation (IBS-C), and (4) at least two of the following applied to at least 25% of defecations: (a) straining during evacuation, (b) lumpy or hard stools, (c) sensation of anorectal obstruction or blockage. Rome 3 requires patients to fulfill the criteria for the last 3 months with symptom onset at least 6 months prior to diagnosis.

Asn^1-Asp^2-Glu^3-Cys^4-Glu^5-Leu^6-Cys^7-Val^8-Asn^9-Val^10-Ala^11-Cys^12-Thr^13-Gly^14-Cys^15-Leu^16 (NDECELCVNVACTGCL; disulfide 4-12, 7-15) [Plecanatide, uroguanylin analogue, guanylate cyclase-C agonist; (C4:C12, C7:C15) bicycle peptide]
Non-Responders, % (3 mg (N = 453)): 79.0%
Durable Overall CSBM Responders, % (3 mg (N = 453)): 21.0%
proportion of durable overall responders (3.0 mg once-a-day): 21.0%
Odds Ratio (adjusted), durable overall CSBM responders (3 mg vs placebo): 0.429
Difference in Proportions (adjusted), responders minus placebo (3 mg): 0.107
Non-Responders, % (6 mg (N = 441)): 80.5%
Durable Overall CSBM Responders, % (6 mg (N = 441)): 19.5%
proportion of durable overall responders (6.0 mg once-a-day): 19.5%
Odds Ratio (adjusted), durable overall CSBM responders (6 mg vs placebo): 0.469
Difference in Proportions (adjusted), responders minus placebo (6 mg): 0.094
Non-Responders, % (Active Combined (N = 894)): 79.8%
Durable Overall CSBM Responders, % (Active Combined (N = 894)): 20.2%
